In test [1] the test system is Rattus norvegicus. Description: cIn vivo SP antagonist activity in rats using SP-induced salivation and paw edema assays. In kind it is functional.
For the next test, the species on record is Cavia porcellus. Description: pA2 was evaluated from schild analyses of the guinea pig ileum contractility data. It counts as functional. Particulars: read-out: pA2 (converted).
In another test the target is Substance-P receptor (Rattus norvegicus, UniProt P14600). In words: Inhibition of Tachykinin receptor 1 of rat forebrain tissue.
The test system of test [2] is Rattus norvegicus. Description: In vivo SP antagonist activity in rats using SP-induced salivation and paw edema assays. It counts as functional.

Here are results for twelve compounds from ChEMBL document CHEMBL1125424 (J Med Chem, 1992).

Broadly, the ED50 is the dose that gives a 50% effect, or the effect in half of the subjects. A high value points to weaker potency. The term pIC50 denotes −log10 of the IC50, conventionally taken in molar units.

pIC50: −log10 of the molar value.

Sequence of Substance-P receptor (P14600 whole entry): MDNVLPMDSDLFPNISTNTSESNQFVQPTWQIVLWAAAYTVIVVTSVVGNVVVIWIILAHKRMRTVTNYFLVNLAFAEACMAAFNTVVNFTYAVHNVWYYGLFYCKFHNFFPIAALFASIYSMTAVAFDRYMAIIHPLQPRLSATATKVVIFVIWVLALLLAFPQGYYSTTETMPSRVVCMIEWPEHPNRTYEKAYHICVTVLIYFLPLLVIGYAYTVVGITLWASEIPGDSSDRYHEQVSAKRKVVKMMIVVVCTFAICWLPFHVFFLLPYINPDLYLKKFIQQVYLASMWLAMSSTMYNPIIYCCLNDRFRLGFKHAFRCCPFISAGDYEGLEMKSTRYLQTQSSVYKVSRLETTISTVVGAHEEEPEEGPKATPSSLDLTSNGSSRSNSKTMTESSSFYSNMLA

`CCn1c(/C=C/C=C2\N(C)c3ccccc3C2(C)C)[n+](CC)c2nc3ccccc3nc21.[Cl-]` gave an ED50 in the test with Rattus norvegicus [1] of 1.73 mg/kg. Also, in the test listed under Cavia porcellus, the Kb was 58.9 nM.

With `CCN1/C(=C\C=C\c2n(CC)c3cc4ccccc4cc3[n+]2CC)C(C)(C)c2ccccc21`, the pIC50 at Substance-P receptor is 6.44.

The compound `CCN1/C(=C\C=C\c2n(CC)c3cc4ccccc4cc3[n+]2CC)Sc2ccccc21` had a pIC50 on Substance-P receptor of 6.49.

Compound `CCn1c(/C=C/C=C2\N(C)c3ccccc3C2(C)C)[n+](CCO)c2cc3ccccc3cc21` gave a pIC50 on Substance-P receptor of 6.35.

`CCN1/C(=C\C=C\c2n(CC)c3cc4ccccc4cc3[n+]2CC)Oc2ccccc21`: at Substance-P receptor, the pIC50 is 6.51.

Consider `CCN1/C(=C\C=C2/CCC[n+]3c2n(CC)c2cc4ccccc4cc23)Sc2ccccc21`, for which, at Substance-P receptor, the pIC50 was 5.89.

Consider `CCn1c2[n+](c3cc4ccccc4cc31)CCC2=C/C=C1\N(C)c2ccccc2C1(C)C`, for which the pIC50 against Substance-P receptor was 6.10.

On Substance-P receptor, `CCN1/C(=C\C=C2CC(C)[n+]3c2n(CC)c2cc4ccccc4cc23)Sc2ccccc21` (stereo not given) had a pIC50 of 6.74.

Regarding `CCn1c(/C=C/C=C2\N(C)c3ccccc3C2(C)C)[n+](CCOC(C)=O)c2cc3ccccc3cc21`, on Substance-P receptor, the pIC50 was 6.39.

In the case of `CCN1/C(=C\C=C2CC[n+]3c2n(CC)c2cc4ccccc4cc23)Oc2ccccc21`, the pIC50 against Substance-P receptor is 5.38.

In the case of `CCn1c(/C=C/C=C2\N(C)c3ccccc3C2(C)C)[n+](CC)c2cc3ccccc3cc21.[Cl-]`, the pIC50 against Substance-P receptor is 6.41. In addition, the Kb in the test filed under Cavia porcellus was 35.5 nM. In the test with Rattus norvegicus [2], this compound returned a median effective dose (ED50) of 0.48 mg/kg.

Take `CCn1c2[n+](c3cc4ccccc4cc31)C(C)CC2=C/C=C1\N(C)c2ccc3ccccc3c2C1(C)C` (stereo not given): the pIC50 against Substance-P receptor was 6.51.
